Results: ChEMBL document CHEMBL1153670 (Bioorg Med Chem Lett, 1995)

Legend:
[1] = test system: HCT-116; test: Potency relative to paclitaxel in a tubulin polymerization assay in HCT116 cell line; assay type: functional, Homo sapiens
[2] = test system: HCT-116; test: In vitro cytotoxicity was determined by inhibition against HCT116 cell line proliferation after 72 hours of incubation; assay type: cell-based; details: Homo sapiens, HCT-116, 72 h
[3] = test system: HCT-116; test: cells; details: Homo sapiens
[4] = test system: M109; test: In vivo cytotoxicity of intraperitoneally administered compound was determined against ip implanted murine M-109 lung carcinoma; NA means not active; assay type: organism-based; details: mouse

Row | SMILES | IC50 [3] | Tubulin polymerization ratio [1] | IC50 [2] | T/C [4]
1 | CC(=O)O[C@H]1C(=O)[C@@]2(C)C([C@H](OC(=O)c3ccccc3)[C@]3(O)C[C@H](OC(=O)[C@H](O)C(NC(=O)c4ccccc4)c4ccccc4)C(C)=C1C3(C)C)[C@]1(OC(=O)n3ccnc3)CO[C@@H]1C[C@@H]2O (some centres not stated) | 251 nM | 263 | 803 nM | 
2 | CC(=O)O[C@H]1C(=O)[C@@]2(C)C([C@H](OC(=O)c3ccccc3)[C@]3(O)C[C@H](OC(=O)[C@H](O)C(NC(=O)c4ccccc4)c4ccccc4)C(C)=C1C3(C)C)[C@]1(OC(=O)C3CCCC3)CO[C@@H]1C[C@@H]2O (some centres not stated) | 0.5 nM | 1.54 | 2 nM | 
3 | CC(=O)O[C@H]1C(=O)[C@@]2(C)C([C@H](OC(=O)c3ccccc3)[C@]3(O)C[C@H](OC(=O)[C@H](O)C(NC(=O)c4ccccc4)c4ccccc4)C(C)=C1C3(C)C)[C@]1(OC(=O)c3ccccc3)CO[C@@H]1C[C@@H]2O (some centres not stated) | 103 nM | >60 | 410 nM | 
4 | CC(=O)O[C@H]1C(=O)[C@@]2(C)C([C@H](OC(=O)c3ccccc3)[C@]3(O)C[C@H](OC(=O)[C@H](O)C(NC(=O)c4ccccc4)c4ccccc4)C(C)=C1C3(C)C)[C@]1(OC(=O)N3CC3)CO[C@@H]1C[C@@H]2O (some centres not stated) | 6.5 nM |  | 15.6 nM | 
5 | CC(=O)O[C@H]1C(=O)[C@@]2(C)C([C@H](OC(=O)c3ccccc3)[C@]3(O)C[C@H](OC(=O)[C@H](O)C(NC(=O)c4ccccc4)c4ccccc4)C(C)=C1C3(C)C)[C@]1(OC(=O)c3ccc(F)cc3)CO[C@@H]1C[C@@H]2O (some centres not stated) | 198 nM | 61 | 790 nM | 
6 | CC(=O)O[C@H]1C(=O)[C@@]2(C)C([C@H](OC(=O)c3ccccc3)[C@]3(O)C[C@H](OC(=O)[C@H](O)C(NC(=O)c4ccccc4)c4ccccc4)C(C)=C1C3(C)C)[C@]1(OC(=O)CF)CO[C@@H]1C[C@@H]2O (some centres not stated) | 1.75 nM | 1.2 | 7 nM | 
7 | CC(=O)O[C@H]1C(=O)[C@@]2(C)C([C@H](OC(=O)c3ccccc3)[C@]3(O)C[C@H](OC(=O)[C@H](O)C(NC(=O)c4ccccc4)c4ccccc4)C(C)=C1C3(C)C)[C@]1(OC(=O)C(Cl)(Cl)Cl)CO[C@@H]1C[C@@H]2O (some centres not stated) | 1.1 nM | 0.68 | 4 nM | 
8 | CCCCCC(=O)O[C@@]12CO[C@@H]1C[C@H](O)[C@@]1(C)C(=O)[C@H](OC(C)=O)C3=C(C)[C@@H](OC(=O)[C@H](O)C(NC(=O)c4ccccc4)c4ccccc4)C[C@@](O)([C@@H](OC(=O)c4ccccc4)C12)C3(C)C (some centres not stated) | 1.5 nM | 3.4 | 6 nM | 
9 | CCCOC(=O)O[C@@]12CO[C@@H]1C[C@H](O)[C@@]1(C)C(=O)[C@H](OC(C)=O)C3=C(C)[C@@H](OC(=O)[C@H](O)C(NC(=O)OC(C)(C)C)c4ccco4)C[C@@](O)([C@@H](OC(=O)c4ccccc4)C12)C3(C)C (some centres not stated) | 0.6 nM | 0.71 | 3 nM | Not Active
10 | C=CC(=O)O[C@@]12CO[C@@H]1C[C@H](O)[C@@]1(C)C(=O)[C@H](OC(C)=O)C3=C(C)[C@@H](OC(=O)[C@H](O)C(NC(=O)c4ccccc4)c4ccccc4)C[C@@](O)([C@@H](OC(=O)c4ccccc4)C12)C3(C)C (some centres not stated) | 1.5 nM | 0.42 | 6 nM | 
11 | CCCCC(=O)O[C@@]12CO[C@@H]1C[C@H](O)[C@@]1(C)C(=O)[C@H](OC(C)=O)C3=C(C)[C@@H](OC(=O)[C@H](O)C(NC(=O)c4ccccc4)c4ccccc4)C[C@@](O)([C@@H](OC(=O)c4ccccc4)C12)C3(C)C (some centres not stated) | 0.5 nM | 1.04 | 2 nM | 
12 | CC(=O)O[C@H]1C(=O)[C@@]2(C)C([C@H](OC(=O)c3ccccc3)[C@]3(O)C[C@H](OC(=O)[C@H](O)C(NC(=O)c4ccccc4)c4ccccc4)C(C)=C1C3(C)C)[C@]1(O)CO[C@@H]1C[C@@H]2O (some centres not stated) | > 200 nM | 200 | > 1000 nM | 

Second part, led by results:

Row | IC50 [3] | SMILES | Tubulin polymerization ratio [1] | IC50 [2] | T/C [4]
13 | 2.3 nM | CC(=O)O[C@H]1C(=O)[C@@]2(C)C([C@H](OC(=O)c3ccccc3)[C@]3(O)C[C@H](OC(=O)[C@H](O)C(NC(=O)c4ccccc4)c4ccccc4)C(C)=C1C3(C)C)[C@]1(OC(=O)NC3CCC3)CO[C@@H]1C[C@@H]2O (some centres not stated) | 0.76 | 9.2 nM | 
14 | 0.5 nM | CCC(=O)O[C@@]12CO[C@@H]1C[C@H](O)[C@@]1(C)C(=O)[C@H](OC(C)=O)C3=C(C)[C@@H](OC(=O)[C@H](O)C(NC(=O)c4ccccc4)c4ccccc4)C[C@@](O)([C@@H](OC(=O)c4ccccc4)C12)C3(C)C (some centres not stated) | 1.5 | 2 nM | 
15 | 0.61 nM | CC(=O)O[C@H]1C(=O)[C@@]2(C)C([C@H](OC(=O)c3ccccc3)[C@]3(O)C[C@H](OC(=O)[C@H](O)C(C=C(C)C)NC(=O)c4ccccc4)C(C)=C1C3(C)C)[C@]1(OC(=O)C3CC3)CO[C@@H]1C[C@@H]2O (some centres not stated) | 0.36 | 1.7 nM | Not Active
16 | 0.48 nM | CC(=O)O[C@H]1C(=O)[C@@]2(C)C([C@H](OC(=O)c3ccccc3)[C@]3(O)C[C@H](OC(=O)[C@H](O)C(NC(=O)OC(C)(C)C)c4ccco4)C(C)=C1C3(C)C)[C@]1(OC(=O)C3CCC3)CO[C@@H]1C[C@@H]2O (some centres not stated) | 0.48 | 1.9 nM | Not Active
17 | 0.58 nM | C/C=C/C(=O)O[C@@]12CO[C@@H]1C[C@H](O)[C@@]1(C)C(=O)[C@H](OC(C)=O)C3=C(C)[C@@H](OC(=O)[C@H](O)C(NC(=O)c4ccccc4)c4ccccc4)C[C@@](O)([C@@H](OC(=O)c4ccccc4)C12)C3(C)C (some centres not stated) | 0.7 | 2.3 nM | 
18 | 0.67 nM | CCCOC(=O)O[C@@]12CO[C@@H]1C[C@H](O)[C@@]1(C)C(=O)[C@H](OC(C)=O)C3=C(C)[C@@H](OC(=O)[C@H](O)C(NC(=O)c4ccccc4)c4ccccc4)C[C@@](O)([C@@H](OC(=O)c4ccccc4)C12)C3(C)C (some centres not stated) | 0.76 | 2.6 nM | 
19 | 0.57 nM | COC(=O)O[C@@]12CO[C@@H]1C[C@H](O)[C@@]1(C)C(=O)[C@H](OC(C)=O)C3=C(C)[C@@H](OC(=O)[C@H](O)C(NC(=O)c4ccccc4)c4ccco4)C[C@@](O)([C@@H](OC(=O)c4ccccc4)C12)C3(C)C (some centres not stated) | 0.33 | 2.3 nM | Not Active
20 | 2.85 nM | CC(=O)O[C@H]1C(=O)[C@@]2(C)C([C@H](OC(=O)c3ccccc3)[C@]3(O)C[C@H](OC(=O)[C@H](O)C(C=C(C)C)NC(=O)OC(C)(C)C)C(C)=C1C3(C)C)[C@]1(OC(=O)C3CC3)CO[C@@H]1C[C@@H]2O (some centres not stated) | 0.36 | 7.7 nM | Not Active
21 | 1.25 nM | CC(=O)O[C@H]1C(=O)[C@@]2(C)C([C@H](OC(=O)c3ccccc3)[C@]3(O)C[C@H](OC(=O)[C@H](O)C(NC(=O)c4ccccc4)c4ccccc4)C(C)=C1C3(C)C)[C@]1(OC(=O)C(C)C)CO[C@@H]1C[C@@H]2O (some centres not stated) | 0.46 | 5 nM | 
